The term IC50 denotes the concentration that gives 50% inhibition. Read a low IC50 as greater potency in that assay.

The results in this text go back to publication PMC4774911, “Biochemical Screening of Five Protein Kinases from Plasmodium falciparum against 14,000 Cell-Active Compounds” (PLoS ONE, 2016).

Among the targets are CSNK2A1 (Homo sapiens, UniProt P68400); RPS6KA5 (Homo sapiens, UniProt O75582); LIMK1 (Homo sapiens, UniProt P53667); CDC2 (Homo sapiens, UniProt P06493); MARK2 (Homo sapiens, UniProt Q7KZI7); BTK (Homo sapiens, UniProt Q06187).
What all share (experiment): biochemical
Another experiment deals with T1, IRAK4 (Homo sapiens, UniProt Q9NWZ3).
T1 sequence (Q9NWZ3 1-460): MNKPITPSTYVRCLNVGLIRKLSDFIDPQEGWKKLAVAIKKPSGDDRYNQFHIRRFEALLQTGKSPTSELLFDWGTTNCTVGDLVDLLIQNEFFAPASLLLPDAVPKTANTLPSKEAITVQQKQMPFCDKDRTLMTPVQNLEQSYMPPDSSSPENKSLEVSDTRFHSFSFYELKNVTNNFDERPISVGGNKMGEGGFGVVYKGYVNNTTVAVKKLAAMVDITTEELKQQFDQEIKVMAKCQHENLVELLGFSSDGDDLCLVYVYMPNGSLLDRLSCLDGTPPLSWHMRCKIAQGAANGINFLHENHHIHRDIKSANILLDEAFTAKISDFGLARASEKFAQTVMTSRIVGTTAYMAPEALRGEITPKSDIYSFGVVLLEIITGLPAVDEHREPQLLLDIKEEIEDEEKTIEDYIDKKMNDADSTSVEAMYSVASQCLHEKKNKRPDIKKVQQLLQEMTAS

The next experiment deals with T2, ULK3 (Homo sapiens, UniProt Q6PHR2).
T2 sequence (Q6PHR2 1-472): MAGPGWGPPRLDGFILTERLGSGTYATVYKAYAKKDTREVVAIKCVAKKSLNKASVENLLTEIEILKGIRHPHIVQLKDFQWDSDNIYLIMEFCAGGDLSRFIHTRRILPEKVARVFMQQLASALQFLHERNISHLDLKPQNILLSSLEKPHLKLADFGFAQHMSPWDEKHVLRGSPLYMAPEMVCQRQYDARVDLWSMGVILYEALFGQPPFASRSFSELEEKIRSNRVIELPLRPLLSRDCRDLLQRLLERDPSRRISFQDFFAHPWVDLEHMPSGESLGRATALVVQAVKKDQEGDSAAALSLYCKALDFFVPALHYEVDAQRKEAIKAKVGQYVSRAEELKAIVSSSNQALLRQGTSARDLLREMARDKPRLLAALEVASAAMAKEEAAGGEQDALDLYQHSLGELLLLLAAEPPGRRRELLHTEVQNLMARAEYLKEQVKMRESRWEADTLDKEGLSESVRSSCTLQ

Another experiment concerns the target T3, TNK1 (Homo sapiens, UniProt Q13470).
T3 sequence (Q13470 1-666): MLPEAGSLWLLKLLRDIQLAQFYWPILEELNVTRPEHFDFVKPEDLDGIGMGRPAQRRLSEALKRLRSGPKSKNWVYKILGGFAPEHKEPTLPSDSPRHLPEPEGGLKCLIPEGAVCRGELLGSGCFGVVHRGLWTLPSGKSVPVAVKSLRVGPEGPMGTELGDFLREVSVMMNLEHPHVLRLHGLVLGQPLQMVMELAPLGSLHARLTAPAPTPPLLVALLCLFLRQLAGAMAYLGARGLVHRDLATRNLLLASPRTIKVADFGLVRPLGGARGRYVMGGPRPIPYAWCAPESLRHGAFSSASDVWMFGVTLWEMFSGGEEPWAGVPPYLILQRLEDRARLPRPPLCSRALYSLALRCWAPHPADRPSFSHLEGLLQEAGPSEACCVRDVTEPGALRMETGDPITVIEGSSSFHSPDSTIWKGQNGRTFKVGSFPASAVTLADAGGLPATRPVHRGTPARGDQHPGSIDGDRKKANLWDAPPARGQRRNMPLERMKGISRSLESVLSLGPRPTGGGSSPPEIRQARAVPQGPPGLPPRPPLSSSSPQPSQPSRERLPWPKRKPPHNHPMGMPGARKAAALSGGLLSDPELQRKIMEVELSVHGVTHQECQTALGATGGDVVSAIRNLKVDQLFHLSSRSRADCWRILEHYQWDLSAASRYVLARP

In a further experiment the target is T4, PLK4 (Homo sapiens, UniProt O00444).
T4 sequence (O00444 1-970): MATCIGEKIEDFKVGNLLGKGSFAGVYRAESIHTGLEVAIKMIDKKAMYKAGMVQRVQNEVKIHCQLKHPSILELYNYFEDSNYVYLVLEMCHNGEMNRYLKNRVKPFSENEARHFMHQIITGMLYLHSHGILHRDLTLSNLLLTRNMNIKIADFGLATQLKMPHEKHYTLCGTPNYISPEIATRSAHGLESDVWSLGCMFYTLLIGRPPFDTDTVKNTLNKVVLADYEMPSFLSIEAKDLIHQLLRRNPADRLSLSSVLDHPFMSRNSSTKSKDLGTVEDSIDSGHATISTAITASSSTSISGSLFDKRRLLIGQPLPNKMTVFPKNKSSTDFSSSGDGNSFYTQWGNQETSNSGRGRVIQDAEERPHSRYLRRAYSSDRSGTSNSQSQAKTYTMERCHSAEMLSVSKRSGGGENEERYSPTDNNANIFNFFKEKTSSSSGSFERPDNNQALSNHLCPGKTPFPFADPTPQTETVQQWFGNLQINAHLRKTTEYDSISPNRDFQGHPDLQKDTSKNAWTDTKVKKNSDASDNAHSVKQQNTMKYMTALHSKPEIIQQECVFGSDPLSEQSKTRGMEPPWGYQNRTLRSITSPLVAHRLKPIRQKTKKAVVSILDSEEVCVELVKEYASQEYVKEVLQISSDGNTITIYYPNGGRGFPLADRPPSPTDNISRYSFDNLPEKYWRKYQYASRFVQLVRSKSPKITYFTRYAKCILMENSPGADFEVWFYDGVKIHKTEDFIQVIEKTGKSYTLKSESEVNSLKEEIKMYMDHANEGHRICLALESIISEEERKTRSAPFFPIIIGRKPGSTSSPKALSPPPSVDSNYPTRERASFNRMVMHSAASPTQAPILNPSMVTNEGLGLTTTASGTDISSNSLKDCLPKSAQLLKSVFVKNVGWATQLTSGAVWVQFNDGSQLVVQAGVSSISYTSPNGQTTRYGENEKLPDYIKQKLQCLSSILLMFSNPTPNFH

Where “and” joins values, the source holds several entries; their conditions need not be identical. Equal values may be shown once. Where only a bound is given, the exact number is not on record here.

Chain of MARK2 (Q7KZI7 whole entry): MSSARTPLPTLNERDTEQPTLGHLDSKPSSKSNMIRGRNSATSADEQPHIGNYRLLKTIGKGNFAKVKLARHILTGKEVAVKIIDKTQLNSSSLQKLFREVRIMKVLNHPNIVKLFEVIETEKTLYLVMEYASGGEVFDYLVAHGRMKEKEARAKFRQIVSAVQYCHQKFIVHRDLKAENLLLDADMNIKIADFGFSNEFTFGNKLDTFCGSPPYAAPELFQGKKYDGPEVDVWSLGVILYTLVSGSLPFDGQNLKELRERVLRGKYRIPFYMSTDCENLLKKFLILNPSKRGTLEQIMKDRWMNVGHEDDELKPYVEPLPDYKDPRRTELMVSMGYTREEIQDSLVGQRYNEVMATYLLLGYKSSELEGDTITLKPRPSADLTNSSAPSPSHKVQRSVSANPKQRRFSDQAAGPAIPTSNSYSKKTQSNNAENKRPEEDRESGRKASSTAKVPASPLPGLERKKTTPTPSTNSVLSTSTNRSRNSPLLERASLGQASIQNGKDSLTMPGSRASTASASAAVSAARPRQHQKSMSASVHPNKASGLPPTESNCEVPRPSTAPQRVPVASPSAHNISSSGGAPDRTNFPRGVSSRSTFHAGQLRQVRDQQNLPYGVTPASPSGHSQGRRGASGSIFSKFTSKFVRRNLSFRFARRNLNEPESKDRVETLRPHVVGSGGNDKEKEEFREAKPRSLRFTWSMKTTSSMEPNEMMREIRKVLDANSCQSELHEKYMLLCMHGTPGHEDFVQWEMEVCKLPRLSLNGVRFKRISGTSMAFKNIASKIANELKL
Chain of CSNK2A1 (P68400 whole entry): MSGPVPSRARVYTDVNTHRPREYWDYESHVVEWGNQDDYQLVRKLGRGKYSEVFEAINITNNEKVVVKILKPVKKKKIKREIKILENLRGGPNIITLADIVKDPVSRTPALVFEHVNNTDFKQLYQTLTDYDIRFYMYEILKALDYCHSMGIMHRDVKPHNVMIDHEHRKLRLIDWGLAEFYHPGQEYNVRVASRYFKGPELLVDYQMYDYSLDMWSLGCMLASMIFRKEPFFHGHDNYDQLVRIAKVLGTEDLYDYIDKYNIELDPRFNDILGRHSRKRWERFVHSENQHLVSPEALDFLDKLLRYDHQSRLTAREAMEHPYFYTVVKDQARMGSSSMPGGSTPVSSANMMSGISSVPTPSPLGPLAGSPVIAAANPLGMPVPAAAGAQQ
Chain of RPS6KA5 (O75582 whole entry): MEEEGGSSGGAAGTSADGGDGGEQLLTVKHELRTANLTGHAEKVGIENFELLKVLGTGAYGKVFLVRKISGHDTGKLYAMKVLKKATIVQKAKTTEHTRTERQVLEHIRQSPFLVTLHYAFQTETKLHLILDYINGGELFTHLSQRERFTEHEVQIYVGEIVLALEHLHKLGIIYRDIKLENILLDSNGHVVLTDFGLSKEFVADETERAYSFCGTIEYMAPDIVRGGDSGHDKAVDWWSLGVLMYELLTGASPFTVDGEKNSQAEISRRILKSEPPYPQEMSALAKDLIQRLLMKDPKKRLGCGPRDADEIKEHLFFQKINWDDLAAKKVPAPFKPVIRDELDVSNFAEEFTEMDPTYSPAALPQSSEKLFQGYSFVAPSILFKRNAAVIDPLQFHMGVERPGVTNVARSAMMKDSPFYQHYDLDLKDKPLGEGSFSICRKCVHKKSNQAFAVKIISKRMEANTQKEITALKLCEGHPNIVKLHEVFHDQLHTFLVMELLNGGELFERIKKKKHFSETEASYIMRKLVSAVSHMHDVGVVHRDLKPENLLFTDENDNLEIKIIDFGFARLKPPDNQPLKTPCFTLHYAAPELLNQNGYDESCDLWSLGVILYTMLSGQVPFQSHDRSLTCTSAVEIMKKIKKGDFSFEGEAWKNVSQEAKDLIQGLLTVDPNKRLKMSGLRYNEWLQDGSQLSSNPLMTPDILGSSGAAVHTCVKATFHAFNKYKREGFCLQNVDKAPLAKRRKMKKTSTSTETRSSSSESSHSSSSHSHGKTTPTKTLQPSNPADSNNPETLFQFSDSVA
Chain of LIMK1 (P53667 whole entry): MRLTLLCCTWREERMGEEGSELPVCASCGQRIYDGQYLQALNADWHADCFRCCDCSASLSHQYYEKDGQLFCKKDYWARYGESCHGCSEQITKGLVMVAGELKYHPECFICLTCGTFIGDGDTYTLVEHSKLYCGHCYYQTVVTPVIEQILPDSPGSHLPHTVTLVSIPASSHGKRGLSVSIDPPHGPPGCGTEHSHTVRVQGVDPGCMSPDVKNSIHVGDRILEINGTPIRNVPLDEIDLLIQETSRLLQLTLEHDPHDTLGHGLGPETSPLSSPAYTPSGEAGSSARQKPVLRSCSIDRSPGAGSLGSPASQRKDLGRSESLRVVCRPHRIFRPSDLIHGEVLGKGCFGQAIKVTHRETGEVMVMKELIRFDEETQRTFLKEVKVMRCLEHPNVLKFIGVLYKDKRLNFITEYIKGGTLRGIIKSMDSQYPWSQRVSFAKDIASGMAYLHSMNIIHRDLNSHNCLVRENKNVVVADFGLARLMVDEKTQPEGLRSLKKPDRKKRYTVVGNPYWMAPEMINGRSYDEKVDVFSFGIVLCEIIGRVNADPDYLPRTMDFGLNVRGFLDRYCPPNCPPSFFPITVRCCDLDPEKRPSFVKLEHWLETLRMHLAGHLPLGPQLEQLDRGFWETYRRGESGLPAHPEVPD
Chain of CDC2 (P06493 whole entry): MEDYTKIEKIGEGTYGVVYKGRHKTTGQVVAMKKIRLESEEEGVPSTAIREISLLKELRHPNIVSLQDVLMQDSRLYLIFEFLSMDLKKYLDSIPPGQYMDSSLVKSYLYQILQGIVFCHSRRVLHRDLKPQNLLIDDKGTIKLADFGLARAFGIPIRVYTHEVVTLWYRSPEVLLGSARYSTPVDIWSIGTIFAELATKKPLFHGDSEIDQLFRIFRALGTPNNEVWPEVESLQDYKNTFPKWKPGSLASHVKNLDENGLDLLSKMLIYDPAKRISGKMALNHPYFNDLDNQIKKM
Chain of BTK (Q06187 whole entry): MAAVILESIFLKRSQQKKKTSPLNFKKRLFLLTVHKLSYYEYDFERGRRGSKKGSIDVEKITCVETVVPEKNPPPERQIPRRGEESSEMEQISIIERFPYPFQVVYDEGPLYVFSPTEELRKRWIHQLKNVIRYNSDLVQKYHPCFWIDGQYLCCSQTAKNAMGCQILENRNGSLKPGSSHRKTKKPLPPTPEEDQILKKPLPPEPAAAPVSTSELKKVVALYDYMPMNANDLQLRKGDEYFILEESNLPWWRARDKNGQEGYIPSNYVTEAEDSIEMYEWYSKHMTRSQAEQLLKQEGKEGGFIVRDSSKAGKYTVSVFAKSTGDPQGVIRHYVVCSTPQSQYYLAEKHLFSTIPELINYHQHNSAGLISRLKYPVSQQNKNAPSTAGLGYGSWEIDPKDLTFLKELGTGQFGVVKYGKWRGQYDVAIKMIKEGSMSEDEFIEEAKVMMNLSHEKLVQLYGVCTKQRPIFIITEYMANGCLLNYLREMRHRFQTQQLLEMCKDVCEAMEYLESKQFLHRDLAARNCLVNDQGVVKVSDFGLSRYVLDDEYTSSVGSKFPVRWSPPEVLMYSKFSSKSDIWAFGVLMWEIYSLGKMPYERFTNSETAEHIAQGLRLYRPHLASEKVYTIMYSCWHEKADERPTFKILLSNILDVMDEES

Consider `CN1CCN(c2ccc(Nc3ncc(C#N)c(Nc4ccccc4C(N)=O)n3)cc2)CC1.Cl` [TCMDC-134116], for which the concentration for half-maximal inhibition (IC50) on CSNK2A1 was ≤ 32 nM and 34 nM; on RPS6KA5 it was 500 nM and 750 nM; on IRAK4, 0.17 µM; against ULK3, 60 nM and 95 nM; on LIMK1 it was 0.22 µM; against CDC2, 1.5 µM. Further, the IC50 was not above 32 nM on TNK1; 210 nM and 270 nM against PLK4; 220 nM and 210 nM on MARK2; 600 nM and 670 nM on BTK.
As for `Cl.NCC1(c2nc(-c3ccc(Cl)c(O)c3)c(-c3ccncc3)[nH]2)CCCCC1` [TCMDC-141154], the 50% inhibitory concentration (IC50) against CSNK2A1 is more than 20000 nM; at RPS6KA5 it was more than 20000 nM; against IRAK4 it was more than 20 µM; against ULK3, more than 20000 nM; against LIMK1 it was more than 20 µM; against CDC2, more than 20 µM. Further, the IC50 against TNK1, against PLK4, on MARK2 and at BTK was more than 20000 nM throughout.
Consider `CN(C)CC(O)COc1ccc(Nc2ncc([N+](=O)[O-])c(Nc3ccccc3O)n2)cc1.O=C(O)C(F)(F)F` (stereo not drawn) [TCMDC-141399], for which the half-inhibitory concentration (IC50) against CSNK2A1 was 92 nM; against RPS6KA5, more than 20000 nM; against IRAK4 it was more than 20 µM; at ULK3 it was more than 20000 nM; against LIMK1, more than 20 µM; against CDC2, more than 20 µM. The IC50 at TNK1 is 4200 nM and 1700 nM; against PLK4 it was more than 20000 nM; against MARK2 it was 6400 nM; against BTK, more than 20000 nM.
